pIC50: −log10 of the molar value. Read-outs that look alike come from different tables or passages of the source.
Columns and labels:
AChE = conditions: cited from earlier work
[1] = biological target: T1, acetylcholinesterase enzyme from electric eel (Electrophorus electricus, UniProt O42275); assay: Acetylcholinesterase (AChE) inhibitory assay (DTNB/acetylthiocholine iodide, absorbance at 412 nm); type: biochemical; conditions: for inhibition at 1.56 µg/mL: Conc 1.56 ug/ml; for inhibition at 3.125 µg/mL: Conc 3.125 ug/ml; for inhibition at 6.25 µg/mL: Conc 6.25 ug/ml; for inhibition at 12.5 µg/mL: Conc 12.5 ug/ml; for inhibition at 25 µg/mL: Conc 25 ug/ml; for inhibition at 50 µg/mL: Conc 50 ug/ml; for IC50: supplement, six concentrations 1.56-50 μg/mL, read-out: IC50 (AchE inhibition) (converted)
T1 construct: purchased Sigma-Aldrich CAS Number 9000-81-1 (catalogue number not given)
T1 sequence (O42275 24-633): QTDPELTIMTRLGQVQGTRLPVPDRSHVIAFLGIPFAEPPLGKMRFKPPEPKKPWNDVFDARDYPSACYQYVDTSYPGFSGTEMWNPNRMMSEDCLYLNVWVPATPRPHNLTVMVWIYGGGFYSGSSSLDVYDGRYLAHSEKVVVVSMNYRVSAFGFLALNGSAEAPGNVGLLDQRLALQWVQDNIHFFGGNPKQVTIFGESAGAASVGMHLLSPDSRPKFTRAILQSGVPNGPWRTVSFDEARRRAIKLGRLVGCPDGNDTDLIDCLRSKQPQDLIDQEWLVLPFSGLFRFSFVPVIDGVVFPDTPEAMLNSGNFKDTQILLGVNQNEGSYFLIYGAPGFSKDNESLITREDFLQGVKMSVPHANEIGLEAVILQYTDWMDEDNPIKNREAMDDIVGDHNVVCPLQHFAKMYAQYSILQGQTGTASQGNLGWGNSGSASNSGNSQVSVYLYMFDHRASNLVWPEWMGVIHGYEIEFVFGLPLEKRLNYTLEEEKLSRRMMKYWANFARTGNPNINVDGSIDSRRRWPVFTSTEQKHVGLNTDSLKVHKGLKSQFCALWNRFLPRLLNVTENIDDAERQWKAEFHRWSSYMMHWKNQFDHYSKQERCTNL
Method: The in vitro cholinesterase inhibitory activity of the 14 synthesized spiro-oxindole derivatives (IIa–n) were evaluated. […] Galantamine was used as a positive control for comparison.
Acetylcholinesterase (AChE) inhibitory assay.
140 μL of 0.1 M sodium phosphate buffer of pH 8 was first added to a 96-wells microplate followed by 20 μL of test samples and 20 μL of 0.09 units/mL acetylcholinesterase enzyme from electric eel (Sigma-Aldrich, CAS Number 9000-81-1). After 15 min of incubation at 25 °C, 10 μL of 10 mM 5,5′-dithiobis-2-nitrobenzoic acid (DTNB, Sigma-Aldrich, CAS Number 69-78-3) was added into each well followed by 10 μL of 14 mM acetylthiocholine iodide (Sigma-Aldrich, CAS Number 1866-15-5). Thirty min after the initiation of enzymatic reaction, absorbance of the colored end-product was measured using StatFax-2100 microplate reader (Awareness Technology, Inc., USA) at 412 nm. Each test was conducted in triplicates. Test samples were prepared in DMSO at an initial concentration of 1 mg/mL (1000 ppm).
The concentration of DMSO in final reaction mixture was 1%.
The initial screening was carried out at 50 μg/mL of test samples in 1% DMSO. Absorbance of the test samples was corrected by subtracting the absorbance of their respective blank. Percentage enzyme inhibition is calculated using the following formula Percentage of inhibition = Absorbance of control - […]

[2] = read-out: IC50 value against AChE

Row | SMILES | pIC50 (AChE; positive control (STD), Table 1, read-out: AChE Inhibition IC50) | inhibition at 1.56 µg/mL [1] | inhibition at 3.125 µg/mL [1] | inhibition at 6.25 µg/mL [1] | inhibition at 12.5 µg/mL [1] | inhibition at 25 µg/mL [1] | inhibition at 50 µg/mL [1] | pIC50 [1, 2] | IC50 [1] | pIC50 ([1]; Table 1, read-out: AChE Inhibition IC50) | AChE inhibitory activity IC50 (AChE; compound A) | pIC50 (AChE; compound A, read-out: AChE inhibitory activity IC50) | AChE inhibitory activity IC50 (AChE; compound B, Figure 1)
2 | O=C(c1ccccc1)C1C(c2cc3ccccc3s2)C2CSCN2[C@@]12C(=O)Nc1ccc(Cl)cc12 (stereo partly drawn) [IIa, (3S)-7′-(Benzo[b]thiophen-2-yl)-6′-benzoyl-5-chloro-3′,6′,7′,7a’-tetrahydro-1′H-spiro[indoline-3,5′-pyrrolo[1,2-c]thiazol]-2-one] | – | 1.68% | 6.58% | 14.4% | 27.7% | 39% | 50.4% | < 4.15 | 85.6 µM | – | – | – | –
3 | O=C(c1ccccc1)C1C(c2cc3ccccc3s2)C2CSCN2[C@@]12C(=O)Nc1ccccc12 (stereo partly drawn) [IIb, (3S)-7′-(Benzo[b]thiophen-2-yl)-6′-benzoyl-3′,6′,7′,7a’-tetrahydro-1′H-spiro[indoline-3,5′-pyrrolo[1,2-c]thiazol]-2-one] | – | 2.76% | 8.12% | 16.2% | 25.6% | 40.9% | 51.5% | < 4.15 | 88.4 µM | – | – | – | –
4 | O=C(c1ccccc1)C1C(c2cc3ccccc3s2)C2C3CCCCC3CN2[C@@]12C(=O)Nc1ccc(Cl)cc12 (stereo partly drawn) [IIc, (3S)-1′-(Benzo[b]thiophen-2-yl)-2′-benzoyl-5-chloro-1′,2′,5′,5a’,6′,7′,8′,9′,9a’,9b’-decahydrospiro[indoline-3,3′-pyrrolo[2,1-a]isoindol]-2-one] | – | 13.9% | 29.9% | 43.5% | 54.5% | 61.6% | 70.3% | – | 20.8 µM | – | – | – | –
5 | O=C(c1ccc(Cl)cc1)C1C(c2cc3ccccc3s2)C2CSCN2[C@@]12C(=O)Nc1ccc(Cl)cc12 (stereo partly drawn) [IId, (3S)-7′-(Benzo[b]thiophen-2-yl)-5-chloro-6′-(4-chlorobenzoyl)-3′,6′,7′,7a’-tetrahydro-1′H-spiro[indoline-3,5′-pyrrolo[1,2-c]thiazol]-2-one] | – | 19.8% | 24.8% | 29.7% | 41.5% | 53.3% | 64% | 4.42 | 37.7 µM | – | – | – | –
6 | O=C(c1ccc(Cl)cc1)C1C(c2cc3ccccc3s2)C2CSCN2[C@@]12C(=O)Nc1ccccc12 (stereo partly drawn) [IIe, (3S)-7′-(Benzo[b]thiophen-2-yl)-6′-(4-chlorobenzoyl)-3′,6′,7′,7a’-tetrahydro-1′H-spiro[indoline-3,5′-pyrrolo[1,2-c]thiazol]-2-one] | – | 18.2% | 23.3% | 27.7% | 40.3% | 50.5% | 58.6% | 4.30 | 50.6 µM | – | – | – | –
7 | O=C(c1ccc(Cl)cc1)C1C(c2cc3ccccc3s2)C2C3CCCCC3CN2[C@@]12C(=O)Nc1ccc(Cl)cc12 (stereo partly drawn) [IIf, (3S)-1′-(Benzo[b]thiophen-2-yl)-5-chloro-2′-(4-chlorobenzoyl)-1′,2′,5′,5a’,6′,7′,8′,9′,9a’,9b’-decahydrospiro[indoline-3,3′-pyrrolo[2,1-a]isoindol]-2-one] | – | 16.1% | 24.4% | 34.9% | 43% | 53% | 63.1% | 4.47 | 34 µM | – | – | – | –
8 | O=C(c1ccc(F)cc1)C1C(c2cc3ccccc3s2)C2CSCN2[C@@]12C(=O)Nc1ccc(Cl)cc12 (stereo partly drawn) [IIg, (3S)-7′-(Benzo[b]thiophen-2-yl)-5-chloro-6′-(4-fluorobenzoyl)-3′,6′,7′,7a’-tetrahydro-1′H-spiro[indoline-3,5′-pyrrolo[1,2-c]thiazol]-2-one] | – | 23.4% | 30.3% | 41.5% | 51.8% | 59% | 68.3% | 4.64 | 23 µM | – | – | – | –
9 | O=C(c1ccc(F)cc1)C1C(c2cc3ccccc3s2)C2C3CCCCC3CN2[C@@]12C(=O)Nc1ccc(Cl)cc12 (stereo partly drawn) [IIh, (3S)-1′-(Benzo[b]thiophen-2-yl)-5-chloro-2′-(4-fluorobenzoyl)-1′,2′,5′,5a’,6′,7′,8′,9′,9a’,9b’-decahydrospiro[indoline-3,3′-pyrrolo[2,1-a]isoindol]-2-one] | – | 0.46% | 6.58% | 10.7% | 23.3% | 27.4% | 43% | – | 122 µM | 3.91 | – | – | –
10 | O=C(c1ccc(C(F)(F)F)cc1)C1C(c2cc3ccccc3s2)C2CSCN2[C@@]12C(=O)Nc1ccc(Cl)cc12 (stereo partly drawn) [IIi, (3S)-7′-(Benzo[b]thiophen-2-yl)-5-chloro-6′-(4-(trifluoromethyl)benzoyl)-3′,6′,7′,7a’-tetrahydro-1′H-spiro[indoline-3,5′-pyrrolo[1,2-c]thiazol]-2-one] | – | 1.23% | 7.35% | 12.7% | 26.2% | 38.7% | 52.4% | – | 72.4 µM | – | – | – | –
11 | O=C(c1ccc(C(F)(F)F)cc1)C1C(c2cc3ccccc3s2)C2CSCN2[C@@]12C(=O)Nc1ccccc12 (stereo partly drawn) [IIj, (3S)-7′-(Benzo[b]thiophen-2-yl)-6′-(4-(trifluoromethyl)benzoyl)-3′,6′,7′,7a’-tetrahydro-1′H-spiro[indoline-3,5′-pyrrolo[1,2-c]thiazol]-2-one] | – | 1.68% | 6.43% | 12.2% | 29.4% | 41% | 50.7% | – | 76 µM | – | – | – | –
12 | O=C(c1ccc(C(F)(F)F)cc1)C1C(c2cc3ccccc3s2)C2C3CCCCC3CN2[C@@]12C(=O)Nc1ccc(Cl)cc12 (stereo partly drawn) [IIk, (3S)-1′-(Benzo[b]thiophen-2-yl)-5-chloro-2′-(4-(trifluoromethyl)benzoyl)-1′,2′,5′,5a’,6′,7′,8′,9′,9a’,9b’-decahydrospiro[indoline-3,3′-pyrrolo[2,1-a]isoindol]-2-one] | – | 9.95% | 24.8% | 32.8% | 41.8% | 49.2% | 57.3% | 4.38 | 41.5 µM | – | – | – | –
13 | O=C(c1ccc(Br)cc1)C1C(c2cc3ccccc3s2)C2CSCN2[C@@]12C(=O)Nc1ccc(Cl)cc12 (stereo partly drawn) [IIl, (3S)-7′-(Benzo[b]thiophen-2-yl)-6′-(4-bromobenzoyl)-5-chloro-3′,6′,7′,7a’-tetrahydro-1′H-spiro[indoline-3,5′-pyrrolo[1,2-c]thiazol]-2-one] | – | 11.6% | 25.6% | 34.9% | 44.4% | 56.5% | 64.9% | 4.53 | 29.8 µM | – | – | – | –
14 | O=C(c1ccc(Br)cc1)C1C(c2cc3ccccc3s2)C2CSCN2[C@@]12C(=O)Nc1ccccc12 (stereo partly drawn) [IIm, (3S)-7′-(Benzo[b]thiophen-2-yl)-6′-(4-bromobenzoyl)-3′,6′,7′,7a’-tetrahydro-1′H-spiro[indoline-3,5′-pyrrolo[1,2-c]thiazol]-2-one] | – | – | – | – | – | – | – | 4.38 | – | – | – | – | –
15 | O=C(c1ccc(Br)cc1)C1C(c2cc3ccccc3s2)C2C3CCCCC3CN2[C@@]12C(=O)Nc1ccc(Cl)cc12 (stereo partly drawn) [IIn, (3S)-1′-(Benzo[b]thiophen-2-yl)-2′-(4-bromobenzoyl)-5-chloro-1′,2′,5′,5a’,6′,7′,8′,9′,9a’,9b’-decahydrospiro[indoline-3,3′-pyrrolo[2,1-a]isoindol]-2-one] | – | 15.6% | 23.4% | 32.5% | 41.8% | 50.1% | 61% | 4.43 | 36.8 µM | – | – | – | –
16 | O=C1/C(=C/c2ccc(Cl)cc2Cl)CN(C(=O)C2CC3CCCN3C23C(=O)Nc2cc(Cl)ccc23)C/C1=C\c1ccc(Cl)cc1Cl (stereo not shown) [compound A] | – | – | – | – | – | – | – | – | – | – | 2.37 ± 0.11 µg/mL | 5.48 | –
17 | O=C1/C(=C/c2ccc(Cl)cc2)CN(C(=O)C2CC3CCCN3C23C(=O)Nc2ccccc23)C/C1=C\c1ccc(Cl)cc1 (stereo not shown) [compound B] | – | – | – | – | – | – | – | – | – | – | – | – | 2.28 ± 0.07 µg/mL
